Assay results reported in patent publication US20130022612A1, “METHODS AND COMPOSITIONS FOR MALARIA PROPHYLAXIS” (priority 2004, published 2013).

Tests used:
[1] = tested on: P. falciparum sporozoites; assay: Sporozoite invasion assay, P. falciparum on HepG2 cells; assay type: cell-based, Plasmodium falciparum; conditions: sporozoites preincubated with E-64, HepG2 cells
Method: %invasion=total sporozites−extracellular sporozites×100/total sporozites
Hepa 1-6 cells were seeded in Permanox eight-chambered Lab-Tek wells (2.5×10^5/well) and allowed to grow overnight. On the day of the experiment, 5×10^5 P. berghei wild type, RCon or ΔRI sporozoites were added per well. Sporozoites pre-incubated with 10 μM E-64d for 15 minutes at 25° C. were used as controls. For experiments testing the effect of anti-repeat region antibodies on invasion, HepG2 cells were used and P. berghei or P. falciparum sporozoites were added to the cells in the presence of the indicated antibody. After 1 hour at 37° C., cells were washed, fixed, and sporozoites were stained with a double staining assay that distinguishes intracellular from extracellular sporozoites (Renia et al., 1988). To quantify EEF development, cells with sporozoites were grown for an additional 2 days after which they were fixed with methanol, stained with mAb 2E6 followed by goat anti-mouse Ig conjugated to FITC. In all assays, at least 50 fields per well were counted and each point was performed in triplicate.

P. berghei sporozoites [2] = tested on: P. berghei sporozoites
Method: Panel A illustrates P. berghei sporozoites were metabolically labeled with [35 S]-Cys/Met and then washed and kept on ice (lane 1) or chased with cold medium for two hours at 28° C., in the absence (lane 2) or presence of the indicated protease inhibitors (lanes 3-11). After the chase, sporozoites were lysed, CSP was immunoprecipitated and analyzed by SDS-PAGE and autoradiography (abbreviations: Apr, aprotinin; DCl, 3,4 DCl; Leu, leupeptin; Pep, pepstatin; Phen, 1,10 phenanthroline). Panel B illustrates P. falciparum sporozoites were metabolically labeled as above and then kept on ice (lane 1) or chased with cold medium for ninety minutes in the absence (lane 2) or presence of E-64 (lane 3). Samples were processed as outlined above. Panel C illustrates P. berghei sporozoites were preincubated with buffer (lane 1) or the indicated compounds, washed, metabolically labeled with [^35S]-Cys/Met, lysed, and CSP was immunoprecipitated and analyzed by SDS-PAGE and autoradiography. (Abbreviations: Az=sodium azide).
In addition to the above, pulse-chase metabolic labeling experiments were performed with sporozoites of the human malaria parasite, Plasmodium falciparum. […] In order to insure that the protease inhibitors were not toxic to sporozoites, sporozoites were incubated with the various inhibitors for two hours and then propidium iodide (hereinafter, “PI”) was added, which is a fluorescent molecule that enters permeabilized cells.

P. yoelii sporozoites = conditions: sporozoites preincubated with E-64
Method: For assays with P. berghei and P. yoelii, Hepa 1-6 cells (ATCC CRL-1830, American Type Culture Collection, Manassas, Va.), a mouse hepatoma cell line permissive for P. yoelii sporozoite development (Mota, et al. (2000)) was seeded (8×10^4 cells/well) in Lab-Tek permanox chamber slides (Nalgene Nunc Corp., Naperville, II.) and grown until confluent.
For assays with P. falciparum, HepG2 cells (ATCC HB8065, American Type Culture Collection) were used. On the day of the experiment, sporozoites were pre-incubated with DMEM/BSA alone or with the indicated protease inhibitor for two hours at 28° C. and plated on cells in the continued presence of the inhibitor for one hour at 37° C.
In a control, Hepa 1-6 cells were incubated with E-64 for two hours at 37° C., the medium was removed and then untreated P. berghei sporozoites were added. The inhibitors used were: 10 mM E-64; 1 mM PMSF; 75 mM leupeptin; 0.3 mM aprotinin; 100 mM 3,4 DCl; 1 mM pepstatin. […] Cells were then permeabilized with cold methanol and stained again with mAbs 3D11, 2F6 or 2A10 followed by anti-mouse Ig conjugated to FITC. All sporozoites were FITC-positive whereas only extracellular sporozoites stained with rhodamine. The percentage of sporozoites that invaded the cells is calculated using the following equation:

P. berghei sporozoites [3] = conditions: in the presence of E-64
Method: Hepa 1-6 cells were plated in 96-well tissue culture-treated plates, allowed to grow until semi-confluent, washed with DMEM without phenol red, loaded with 10 μM calcein green AM for 1 hour at 37° C. and washed 3 times. 5×10^5 sporozoites in culture medium were centrifuged onto the calcein-loaded cells, incubated for 1 hour at 37° C. and supernatants containing the released calcein were transferred to a ThermoElectron Microfluor 96-well plate. Fluorescence was read in a Labsystems Fluoroscan II using excitation and emission wavelengths of 485 nm and 538 nm, respectively. Further details are outlined in (Coppi et al., 2007).

[4] = tested on: CSP cleavage in P. berghei sporozoites; assay: Cell contact assay (CSP cleavage on contact with hepatocytes); assay type: cell-based, Plasmodium berghei; conditions: experiment 1, no cells, visualized with α-N
Method: Hepa 1-6 cells were seeded on glass coverslips at a density of 2×10^5 cells per coverslip and grown until confluent. P. berghei sporozoites were incubated in DMEM±10 mM E-64 at 4° C. for two hours. Thirty minutes before sporozoites were added to coverslips, Cytochalasin D (CD) was added to all samples (final concentration, […]). Sporozoites were centrifuged onto coverslips (1250×g) for five minutes at 4° C. Coverslips were then brought to 37° C. for two minutes, fixed with 4% paraformaldehyde and stained with either mAb 3D11 followed by anti-mouse Ig FITC or the N-terminal antiserum (1:100) followed by anti-rabbit Ig FITC. […] As a control, sporozoites were spun onto coverslips without cells using the protocol outlined above.

[5] = tested on: CSP processing in P. falciparum sporozoites; assay: Pulse-chase metabolic labeling of CSP processing, P. falciparum sporozoites; assay type: cell-based, Plasmodium falciparum; conditions: ninety minute chase
Method: P. berghei sporozoites were incubated in Dulbecco's Modified Eagle Medium (DMEM; Invitrogen, Carlsbad, Calif.) without cysteine (Cys) and methionine (Met), containing 1% BSA and […] L-[35 S]-Cys/Met (Pro-Mix, Amersham Pharmacia) in a total volume of 200 μl for one hour at 28° C. They were then washed and resuspended in DMEM/BSA containing unlabeled Cys/Met at 28° C. for the indicated time in the presence or absence of the indicated protease inhibitor. Sporozoites were then lysed and CSP was immunoprecipitated and analyzed by autoradiography as outlined below.
For experiments with P. falciparum, a 10% SDS-polyacrylamide gel was used. Gels were fixed in 25% methanol/12% acetic acid, enhanced with Amplify (Amersham Pharmacia) for 30 minutes, dried, and exposed to film.
P. berghei sporozoites were metabolically labeled in DMEM without Cys/Met, 1% BSA and 400 μCi/ml L-[^355]-Cys/Met for 1 hour at 28° C. and then kept on ice or chased at 28° C. for the indicated times. Details of this procedure are outlined in (Coppi et al., 2005). To investigate the kinetics of processing in the presence of hepatocytes, sporozoites were labeled as above, chased at 28° C. for 1 hour and then centrifuged (300×g) onto glass coverslips with Hepa 1-6 cells and incubated at 37° C. for 5, 15 or 30 minutes. […]

[6] = Brodnitz, M. H., et al.; cited from earlier work

| SMILES | effect on invasion by P. falciparum sporozoites [1] | CSP synthesis after incubation with inhibitor (P. berghei sporozoites [2]) | effect on invasion by P. yoelii sporozoites (P. yoelii sporozoites) | increase in migratory activity (P. berghei sporozoites [3]) [fold] | percentage staining with the N-terminal antiserum [4] | effect on CSP processing [5] | stability in vivo [6] |
| --- | --- | --- | --- | --- | --- | --- | --- |
| CC(C)C[C@H](NC(=O)[C@H]1O[C@@H]1C(=O)O)C(=O)NCCCCN=C(N)N (relative stereo) [E-64, L-trans-epoxysuccinyl-leucylamide-[4-guanido]-butane] | significantly inhibited | not affected | significantly inhibited | 4 to 5 | 90% ± 4.1 | inhibited CSP processing | – |
| C=CCS[S+]([O-])CC=C (stereo not shown) [allicin] | – | – | – | – | – | – | rapid decomposition in vivo |
